The test deals with alkaline phosphatase. The experiment in a line: Enzyme inhibition assay on microfluidic disc (alkaline phosphatase / PNPP, reflectance at 430 nm). Conditions: end-point measurement 2 minutes after fluid pumped into detection chambers; dose-response fitted to Langmuir isotherm; substrate PNPP 0.5 mM; alkaline phosphatase 1 mg/mL; 0.1M glycine, 0.5 mM MgCl2; read-out: inhibition constant. Format: biochemical. On the procedure: The platform shown in FIGS. 1 through 6 was used to perform 96 simultaneous enzyme inhibition assays as model homogeneous assays. In an enzyme inhibition assay, the effect of a compound present in a first fluid (“A”) upon the capacity of an enzyme present in a second fluid (fluid “B”) to catalyze a reaction, typically of a substrate in a third fluid (“C”) is determined. The reaction was chosen to give a change in a readily-measured parameter of the fluid, such as its optical density, or to produce a fluorescent moiety. When no inhibitor was present in fluid A, mixing solution A with enzyme solution B had no effect: enzyme activity detected in this assay was the maximum detected and provided the largest change in the measured parameter. However, if an inhibitor was present in fluid A, mixing fluid A with fluid B resulted, after a sufficient time in a chemical reaction or other change induced by the inhibitor in most or all of the enzyme molecules, rendering them incapable of catalyzing the desired reaction. If this solution was mixed with the substrate solution, little or no change in the measured parameter was seen.
The system chosen to model homogeneous assays consisted of theophylline as inhibitor, alkaline phosphatase as the enzyme, and p-nitrophenol phosphate (PNPP) as the substrate. […]

Molecules are shown by their SMILES.

With `Cn1c(=O)c2[nH]cnc2n(C)c1=O` [theophylline], the Ki was found to be 9.7 ± 0.9 mM.
